{"source": "paper PMC4741798", "about": "“Imaging of carbonic anhydrase IX with an ^111In-labeled dual-motif inhibitor” (Oncotarget, 2015)", "test_system": "SK-RC-52 xenografts", "test": "Biodistribution in mice bearing SK-RC-52 xenografts", "format": "in vivo", "details": "for Tumor/blood ratio / Tumor/kid (kidney) ratio / Tumor/mm (muscle) ratio / Biodistribution: Tumor / Biodistribution: Bladder / Biodistribution: Blood / Biodistribution: Brain / Biodistribution: Fat / Biodistribution: Heart / Biodistribution: Kidney (kid) / Biodistribution: Liver / Biodistribution: Lung / Biodistribution: Muscle (mm) / Biodistribution: Pancreas / Biodistribution: Sm. intestine / Biodistribution: Spleen / Biodistribution: Stomach: n = 5; for Biodistribution: Tumor: SK-RC-52 tumor", "description": "Mice bearing SK-RC-52 xenografts within the lower left flank were injected intravenously with 740 kBq (20 μCi) of [^111In]XYIMSR-01 in 200 μL of PBS. For in vivo competition (binding specificity) studies, tumor-bearing mice were injected with 740 kBq (20 μCi) of [^111In]XYIMSR-01 and 200 nmole of 1 in 200 μL of PBS concurrently. At 1 h, 4 h, 8 h, 24 h and 48 h post-injection, mice were sacrificed by cervical dislocation and the blood was immediately collected by cardiac puncture. Heart, lungs, pancreas, spleen, fat, brain, muscle, small intestines, liver, stomach, kidney, urinary bladder, and tumor were collected. Each organ was weighed and the tissue radioactivity was measured with an automated gamma counter (1282 Compugamma CS, Pharmacia/LKBNuclear, Inc., Mt. Waverly, Vic. Australia). The percentage of injected dose per gram of tissue (% ID/g) was calculated by comparison with samples of a standard dilution of the initial dose. All measurements were corrected for radioactive decay.\nData were expressed as mean ± standard deviation (SD). Prism software (GraphPAD, San Diego, California) was used to determine statistical significance. Statistical significance was calculated using a paired t test. P-values < 0.0001 were considered significant.", "key": {"[1]": {"details": "24 h + Block (co-injected 200 nmole of 1)"}, "[2]": {"details": "48 h + Block (co-injected 200 nmole of 1)"}, "[3]": {"details": "plateau followed by one phase decay fit of Table 1 data"}}, "note": "Values joined by “and” are separate entries in the source; they are usually repeats but may differ in a detail not shown here. Identical values can stand only once."}
{"compound": "CC(CCC(=O)N[C@@H](CC(=O)N[C@@H](CC(=O)N[C@@H](CCCCn1cc(CCCC(=O)Nc2nnc(S(N)(=O)=O)s2)nn1)C(=O)NCCOCCOCCNC(=O)CN1CCN(CC(=O)[O-])CCN(CC(=O)[O-])CCN(CC(=O)[O-])CC1)C(=O)O)C(=O)O)(c1ccc(O)cc1)c1ccc(O)cc1.[111In+3]", "note": "[[^111In]XYIMSR-01]", "values": [{"measurement": "Tumor/blood ratio", "setting": "[1]", "value": "45.2 ± 9.7"}, {"measurement": "Tumor/kid (kidney) ratio", "setting": "[1]", "value": "2.1 ± 0.3"}, {"measurement": "Tumor/mm (muscle) ratio", "setting": "[1]", "value": "91.4 ± 11.1"}, {"measurement": "tumor/liver ratio", "setting": "24 h post-injection", "value": 8.5}, {"measurement": "Biodistribution: Tumor", "setting": "24 h post-injection, i.v.", "value": "25.62 ± 17.67", "unit": "%ID/g"}, {"measurement": "Biodistribution: Bladder", "setting": "24 h post-injection, i.v.", "value": "0.74 ± 0.17", "unit": "%ID/g"}, {"measurement": "Biodistribution: Blood", "setting": "24 h post-injection, i.v.", "value": "0.15 ± 0.02", "unit": "%ID/g"}, {"measurement": "Biodistribution: Brain", "setting": "24 h post-injection, i.v.", "value": "0.71 ± 0.85", "unit": "%ID/g"}, {"measurement": "Biodistribution: Fat", "setting": "24 h post-injection, i.v.", "value": "0.28 ± 0.19", "unit": "%ID/g"}, {"measurement": "Biodistribution: Heart", "setting": "24 h post-injection, i.v.", "value": "1.16 ± 0.20", "unit": "%ID/g"}, {"measurement": "Biodistribution: Kidney (kid)", "setting": "24 h post-injection, i.v.", "value": "15.29 ± 1.69", "unit": "%ID/g"}, {"measurement": "Biodistribution: Liver", "setting": "24 h post-injection, i.v.", "value": "3.02 ± 3.46", "unit": "%ID/g"}, {"measurement": "Biodistribution: Lung", "setting": "24 h post-injection, i.v.", "value": "11.01 ± 3.71", "unit": "%ID/g"}, {"measurement": "Biodistribution: Muscle (mm)", "setting": "24 h post-injection, i.v.", "value": "0.35 ± 0.12", "unit": "%ID/g"}, {"measurement": "Biodistribution: Pancreas", "setting": "24 h post-injection, i.v.", "value": "0.69 ± 0.18", "unit": "%ID/g"}, {"measurement": "Biodistribution: Sm. intestine", "setting": "24 h post-injection, i.v.", "value": "2.11 ± 0.33", "unit": "%ID/g"}, {"measurement": "Biodistribution: Spleen", "setting": "24 h post-injection, i.v.", "value": "0.69 ± 0.39", "unit": "%ID/g"}, {"measurement": "Biodistribution: Stomach", "setting": "24 h post-injection, i.v.", "value": "3.31 ± 1.25", "unit": "%ID/g"}, {"measurement": "Tumor/blood ratio", "setting": "24 h post-injection", "value": "178 and 178.1 ± 145.4"}, {"measurement": "Tumor/kid (kidney) ratio", "setting": "24 h post-injection", "value": "1.7 and 1.7 ± 1.2"}, {"measurement": "Tumor/mm (muscle) ratio", "setting": "24 h post-injection", "value": "68 and 68.4 ± 29.0"}, {"measurement": "Biodistribution: Tumor", "setting": "[2]", "value": "1 %ID/g and 1.22 ± 0.54 %ID/g"}, {"measurement": "Biodistribution: Bladder", "setting": "[2]", "value": "0.14 ± 0.03", "unit": "%ID/g"}, {"measurement": "Biodistribution: Blood", "setting": "[2]", "value": "0.03 ± 0.00", "unit": "%ID/g"}, {"measurement": "Biodistribution: Fat", "setting": "[2]", "value": "0.03 ± 0.01", "unit": "%ID/g"}, {"measurement": "Biodistribution: Heart", "setting": "[2]", "value": "0.04 ± 0.01", "unit": "%ID/g"}, {"measurement": "Biodistribution: Kidney (kid)", "setting": "[2]", "value": "0.45 ± 0.09", "unit": "%ID/g"}, {"measurement": "Biodistribution: Liver", "setting": "[2]", "value": "0.13 ± 0.04", "unit": "%ID/g"}, {"measurement": "Biodistribution: Lung", "setting": "[2]", "value": "0.09 ± 0.02", "unit": "%ID/g"}, {"measurement": "Biodistribution: Muscle (mm)", "setting": "[2]", "value": "0.02 ± 0.00", "unit": "%ID/g"}, {"measurement": "Biodistribution: Pancreas", "setting": "[2]", "value": "0.03 ± 0.01", "unit": "%ID/g"}, {"measurement": "Biodistribution: Sm. intestine", "setting": "[2]", "value": "0.08 ± 0.02", "unit": "%ID/g"}, {"measurement": "Biodistribution: Spleen", "setting": "[2]", "value": "0.11 ± 0.03", "unit": "%ID/g"}, {"measurement": "Biodistribution: Stomach", "setting": "[2]", "value": "0.14 ± 0.03", "unit": "%ID/g"}, {"measurement": "Tumor/blood ratio", "setting": "[2]", "value": "45.4 ± 13.8"}, {"measurement": "Tumor/kid (kidney) ratio", "setting": "[2]", "value": "2.7 ± 0.8"}, {"measurement": "Tumor/mm (muscle) ratio", "setting": "[2]", "value": "75.1 ± 17.7"}, {"measurement": "Biodistribution: Tumor", "setting": "48 h post-injection, i.v.", "value": "13.92 ± 6.67", "unit": "%ID/g"}, {"measurement": "Biodistribution: Bladder", "setting": "48 h post-injection, i.v.", "value": "0.38 ± 0.18", "unit": "%ID/g"}, {"measurement": "Biodistribution: Blood", "setting": "48 h post-injection, i.v.", "value": "0.06 ± 0.02", "unit": "%ID/g"}, {"measurement": "Biodistribution: Brain", "setting": "48 h post-injection, i.v.", "value": "0.41 ± 0.05", "unit": "%ID/g"}, {"measurement": "Biodistribution: Fat", "setting": "48 h post-injection, i.v.", "value": "0.25 ± 0.08", "unit": "%ID/g"}, {"measurement": "Biodistribution: Heart", "setting": "48 h post-injection, i.v.", "value": "0.84 ± 0.16", "unit": "%ID/g"}, {"measurement": "Biodistribution: Kidney (kid)", "setting": "48 h post-injection, i.v.", "value": "8.78 ± 1.89", "unit": "%ID/g"}, {"measurement": "Biodistribution: Liver", "setting": "48 h post-injection, i.v.", "value": "1.65 ± 0.26", "unit": "%ID/g"}, {"measurement": "Biodistribution: Lung", "setting": "48 h post-injection, i.v.", "value": "9.22 ± 1.25", "unit": "%ID/g"}, {"measurement": "Biodistribution: Muscle (mm)", "setting": "48 h post-injection, i.v.", "value": "0.39 ± 0.28", "unit": "%ID/g"}, {"measurement": "Biodistribution: Pancreas", "setting": "48 h post-injection, i.v.", "value": "0.59 ± 0.18", "unit": "%ID/g"}, {"measurement": "Biodistribution: Sm. intestine", "setting": "48 h post-injection, i.v.", "value": "1.22 ± 0.44", "unit": "%ID/g"}, {"measurement": "Biodistribution: Spleen", "setting": "48 h post-injection, i.v.", "value": "0.67 ± 0.13", "unit": "%ID/g"}, {"measurement": "Biodistribution: Stomach", "setting": "48 h post-injection, i.v.", "value": "1.82 ± 0.43", "unit": "%ID/g"}, {"measurement": "Tumor/blood ratio", "setting": "48 h post-injection", "value": "212.0 ± 41.4"}, {"measurement": "Tumor/kid (kidney) ratio", "setting": "48 h post-injection", "value": "1.5 ± 0.5"}, {"measurement": "Tumor/mm (muscle) ratio", "setting": "48 h post-injection", "value": "52.0 ± 21.0"}, {"measurement": "Calculated biological excretion half-life: Bladder", "setting": "[3]", "value": 3.730, "unit": "hr"}, {"measurement": "Calculated biological excretion half-life: Blood", "setting": "[3]", "value": 3.246, "unit": "hr"}, {"measurement": "Calculated biological excretion half-life: Brain", "setting": "[3]", "value": 3.926, "unit": "hr"}, {"measurement": "Calculated biological excretion half-life: Fat", "setting": "[3]", "value": 1.536, "unit": "hr"}, {"measurement": "Calculated biological excretion half-life: Heart", "setting": "[3]", "value": 3.538, "unit": "hr"}, {"measurement": "Calculated biological excretion half-life: Kidney", "setting": "[3]", "value": 4.344, "unit": "hr"}, {"measurement": "Calculated biological excretion half-life: Liver", "setting": "[3]", "value": 4.243, "unit": "hr"}, {"measurement": "Calculated biological excretion half-life: Lung", "setting": "[3]", "value": 5.602, "unit": "hr"}, {"measurement": "Calculated biological excretion half-life: Muscle", "setting": "[3]", "value": 2.534, "unit": "hr"}, {"measurement": "Calculated biological excretion half-life: Pancreas", "setting": "[3]", "value": 3.179, "unit": "hr"}, {"measurement": "Calculated biological excretion half-life: SK-RC-52 tumor", "setting": "[3]", "value": 12.27, "unit": "hr"}, {"measurement": "Calculated biological excretion half-life: Small intestine", "setting": "[3]", "value": 5.597, "unit": "hr"}, {"measurement": "Calculated biological excretion half-life: Stomach", "setting": "[3]", "value": 3.908, "unit": "hr"}]}
